The term Dmax denotes the largest share of the target that was removed. The low end stands for a partial loss of target, the high end for a fuller loss of target. As a reminder, the inhibition is how much of the control response was suppressed. The IC50 is the concentration at which inhibition is half-maximal.

SMILES strings stand for the structures. “Also recorded” adds a separate entry of the source.

We go through 18 compounds from patent EP4670717A1, “PYRROLIDINE-FUSED MYRTANOL DERIVATIVES AS INHIBITORS AND/OR DEGRADERS OF IDO1 UND USE THEREOF” (Max-Planck-Gesellschaft zur Förderung der Wissenschaften …, priority 2024, dated 2025).

The target of test [1] is T1, IDO1 (Homo sapiens, UniProt P14902).
T1 construct: BxPC3 cells were seeded in phenol red-free RPMI 1640 medium; endogenous in cells; host or cells: BxPC3 cells stimulated with IFN-γ (50 ng/mL)
T1 sequence (P14902 whole entry): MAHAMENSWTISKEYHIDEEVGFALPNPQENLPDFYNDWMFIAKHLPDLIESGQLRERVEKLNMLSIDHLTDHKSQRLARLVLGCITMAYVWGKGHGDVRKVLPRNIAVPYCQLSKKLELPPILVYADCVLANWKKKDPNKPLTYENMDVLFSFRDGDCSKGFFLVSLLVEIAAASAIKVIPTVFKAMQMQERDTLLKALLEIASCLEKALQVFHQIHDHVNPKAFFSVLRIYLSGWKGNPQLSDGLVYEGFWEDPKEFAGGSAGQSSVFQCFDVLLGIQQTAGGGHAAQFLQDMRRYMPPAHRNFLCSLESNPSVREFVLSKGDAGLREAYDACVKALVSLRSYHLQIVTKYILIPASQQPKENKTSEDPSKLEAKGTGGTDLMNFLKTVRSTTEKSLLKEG
The test is described as follows: IDO1 degradation in BxPC3 cells, IDO1 protein levels by immunoblotting.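 On all read-outs here: IDO1 bands on Western blots detected with fluorescent dye-labelled secondary antibodies and quantified by band intensity, values are means of n biological replicates.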 The following applies: 50 ng/ml IFN-γ 24 h, washout, compound (100 nM) 24 h, maximum IDO1 degradation at 0.1 µM; for Dmax at 0.1 µM: BXPC-3, BxPC3 cells; for Dmax [%] (n): BxPC3 cells. The class given is cell-based.
Protocol: To analyze IDO1 levels, IFN-γ-stimulated BxPC3 cells (50 ng/mL IFN-γ), U2OS cells (5 ng/mL IFN-γ), HEK^rhIDO1 (HEK293T cells electroporated with rhIDO1), SKOV3 and BT549 cells were treated with compounds for the indicated times (6 h to 24 h) followed by cell lysis (150 mM sodium chloride in 50 mM Tris (pH 8.0) and 1% NP-40 Alternative, protease and phosphatase inhibitors). Protein concentrations were determined (DC protein assay, Bio-Rad) followed by addition of 1 × SDS loading buffer and protein separation by a 10% SDS-PAGE. Separated protein samples were transferred to a polyvinylidene difluoride (PVDF) membrane using a wet-tank blotting system (Bio-Rad). IDO1 as well as vinculin as a loading were detected using the primary antibodies anti-IDO1 (ab211017, abcam or 14-9750-80, Thermo Fisher), anti-vinculin (V9131, Thermo Fisher) and anti-β-actin (ab8227, abcam) in 5 % milk in PBS-buffered saline with 0.05 % (v/v) Tween-20 (PBS-T). Primary antibodies were incubated at 4°C overnight and detected with IRDye-conjugated secondary antibodies (LI-COR Biosciences). IDO1 protein level in BT549 and SKOV3 cells was detected with HRP conjugated secondary antibody and SuperSignal™ West Dura Extended Duration Substrat (Thermo Fisher Scientific). Washing steps were performed with PBS-T. Protein bands were visualized by ChemiDoc™ MP (Bio-Rad) using a fluorescent readout. Band intensities were quantified using Image Lab software.
In order to differentiate between these different activities, we explored the modes of action of selected compounds in an in vitro assay employing recombinant human IDO1 (rhIDO1) monitoring enzymatic activity only, and we characterized the degradation efficiency by means of Western blotting, determining maximum degradation levels at 0.1µM (Dmax) and half maximum degradation concentration (DC50) (Table B-2). […] Data are mean values of n biological replicates. Dmax corresponds to maximum levels of IDO1 degradation at 0.1 µM.

Test [2] has as its target T2, recombinant human IDO1 (rhIDO1) (Homo sapiens, UniProt P14902).
T2 construct: Full-length rhIDO protein (1 µM) in 50 mM potassium phosphate buffer; GST (cleaved yes); made in house; host or cells: E. coli
The test is described as follows: IDO1 enzymatic assay with recombinant protein, Kyn detection with p-DMAB. The test is classed as biochemical. The following applies: pre-incubated with compounds at 37°C for 40 min. From the text:
Reduction of the kynurenine level in the cell-based model employed for initial SAR exploration can be due to inhibition of enzymatic activity, degradation of IDO1, or both (Table B-2). In order to differentiate between these different activities, we explored the modes of action of selected compounds in an in vitro assay employing recombinant human IDO1 (rhIDO1) monitoring enzymatic activity only, and we characterized the degradation efficiency by means of Western blotting, determining maximum degradation levels at 0.1µM (Dmax) and half maximum degradation concentration (DC50) (Table B-2). Table B-2 in vitro inhibition and degradation of IDO1 by selected compounds. […] Data are mean values ± SD (n = 4, except for compounds 1, 11, and 19 (n=2)). […] Data are mean values of n biological replicates. Dmax corresponds to maximum levels of IDO1 degradation at 0.1 µM.
Full-length rhIDO protein (1 µM) in 50 mM potassium phosphate buffer (50 mM KH2PO4 and 50 mM K2HPO4, pH 6.5) was incubated with the respective compounds for 40 min at 37 °C prior to the addition of 10 mM ascorbic acid, 10 µM methylene blue, 2 mM Trp and 100 µg/mL catalase (Sigma-Aldrich, C100). Samples were incubated for 60 min followed by the addition of trichloroacetic acid to a final concentration of 7 % and further incubation for 30 min at 37 °C. Kyn levels were detected by the addition of an equal volume of 2 % (w/v) p-DMAB in acetic acid and absorbance was measured at 492 nm and 650 nm as a background control. Values are presented relative to the DMSO control. Dose-response curves and IC50 values were generated and fitted with GraphPad Prism 6.0 (GraphPad software, USA) using four-parameter variable slope non-linear regression curve fit.

For test [3], the target named is T1, IDO1. Briefly: Kyn assay in BxPC-3 cells (Kyn levels after IFN-γ and Trp).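 On all read-outs here: kyn levels expressed relative to DMSO-treated control cells.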 The test is classed as cell-based. To be noted: for IC50: BxPC-3 cells incubated with IFN-γ, Trp and the compounds for 48 h, read-out: Kyn assay IC50 ± SD; for activity in the cell-based kynurenine assay: result in words.
Protocol: BxPC3 cells were seeded in phenol red-free RPMI 1640 medium in 1536-well or 384-well plates (Greiner #782086, Corning #3770) 24 h prior to the addition of compounds, IFN-γ (50 ng/mL, PeproTech) and L-Trp (380 µM, Sigmal-Aldrich). After 48 h of incubation, first cell viability was accessed by the addition of Hoechst-33342. Afterwards, trichloroacetic acid (TCA, Sigma-Aldrich) was added to a final concentration of 7 % and incubated for 10 min prior to a centrifugation step of 10 min at 1620 × g. Kyn levels were determined by means of the Kyn sensor^7 at a final concentration of 17.5 µM in sensor buffer (50 mM H3PO4 and 120 mM NaCl (pH=1)). Fluorescence intensity (excitation: 535 nm, emission: 595 nm) was measured using a Spectramax Paradigm reader (Molecular Devices). Data were normalized to the values for cells that were treated with DMSO.
For the manual assay, BxPC3 or SKOV3 cells were seeded in clear 96-well or 384-well plates, respectively, 24 h prior to compound treatment and IFN-γ (50 or 5 ng/mL, respectively) and L-Trp (380 µM) addition as described before.^7 48 h after treatment, TCA was added and Kyn levels were detected by means of 2 % w/v of p-DMAB (Ehrlich reagent) in acetic acid as described by Braun et al^29. The absorbance of the Ehrlich reagent was detected at 492 nm and at 650 nm as background control was measured on Spark® multimode microplate plate reader (Tecan, Austria). Kyn levels were determined by subtracting the absorbance value at 650 nm and presented relative to the DMSO control. Dose-response curves and IC50 values were generated and fitted with GraphPad Prism 6.0 (GraphPad software, USA) using four-parameter variable slope non-linear regression curve fit.
Cells were incubated with IFN-γ, Trp and the compounds for 48 h prior to detection of Kyn levels.

T2 sequence (P14902 whole entry): as above

Turning to `CC(C)(C(=O)O)c1ccc(S(=O)(=O)N2C[C@H]3C[C@H]4C[C@H](C4(C)C)[C@@]3(COC(=O)Nc3ccc(I)cc3)C2)cc1` [compound 65, 2-(4-(((3aS,4R,6R,7aS)-3a-((((4-iodophenyl)carbamoyl)oxy)methyl)-5,5-dimethyloctahydro-2H-4,6-methanoisoindol-2-yl)sulfonyl)phenyl)-2-methylpropanoic acid], at IDO1 [1], the Dmax at 0.1 µM was 36 to 46% and the “Dmax [%] (n)” value is on record as 46 ± 21 (5) %. Further, the inhibition at 59 µM in test [2] (in vitro inhibition at 59 uM) came out at 72 ± 4%. In test [2] (determined if inhibition at 59 µM was higher than 50%, read-out: rhIDO1 enzymatic activity IC50 ± SD), the IC50 amounted to 820 ± 140 nM. Moreover, at IDO1 [3], the IC50 is less than 200 nM and the “activity in the cell-based kynurenine assay” value is recorded as “low nanomolar range”.
On to `Cc1ccc(NC(=O)OC[C@]23CN(S(=O)(=O)c4ccc(C(C)(C)C)cc4)C[C@H]2C[C@H]2C[C@@H]3C2(C)C)cc1` [compound 1, ((3aS,4R,6R,7aS)-2-((4-(tert-butyl)phenyl)sulfonyl)-5,5-dimethyloctahydro-3aH-4,6-methanoisoindol-3a-yl)methyl p-tolylcarbamate], for which, in test [2] (in vitro inhibition at 59 uM), the “rhIDO1 enzymatic activity Inhibition [%]” value is “not active; also recorded: inactive”. For the same compound, at IDO1 [3], the IC50 was in the range of 200 to 1000 nM.
As for `COc1cc(C(C)(C)C(=O)O)ccc1S(=O)(=O)N1C[C@H]2C[C@H]3C[C@H](C3(C)C)[C@@]2(COC(=O)Nc2ccc(I)cc2)C1` [compound 67, 2-(4-(((3aS,4R,6R,7aS)-3a-((((4-iodophenyl)carbamoyl)oxy)methyl)-5,5-dimethyloctahydro-2H-4,6-methanoisoindol-2-yl)sulfonyl)-3-methoxyphenyl)-2-methylpropanoic acid], the Dmax at 0.1 µM at IDO1 [1] was determined as 0%. Besides, the IC50 on IDO1 [3] is less than 200 nM.
On to `COC(=O)C(C)(C)c1ccc(S(=O)(=O)N2C[C@H]3C[C@H]4C[C@H](C4(C)C)[C@@]3(COC(=O)Nc3ccc(I)cc3)C2)c(Cl)c1` [compound 68, Methyl 2-(3-chloro-4-(((3aS,4R,6R,7aS)-3a-((((4-iodophenyl)carbamoyl)oxy)methyl)-5,5-dimethyloctahydro-2H-4,6-methanoisoindol-2-yl)sulfonyl)phenyl)-2-methylpropanoate], for which the “rhIDO1 enzymatic activity Inhibition [%]” value in test [2] (in vitro inhibition at 59 uM) was “inactive”. On IDO1 [3], the IC50 is less than 200 nM.
In the case of `Cc1ccc(NC(=O)OC[C@]23CN(S(=O)(=O)c4ccc(C(C)(C)C)cc4)C[C@H]2C[C@H]2C[C@@H]3C2(C)C)c(C)c1` [compound 7, ((3aS,4R,6R,7aS)-2-((4-(tert-butyl)phenyl)sulfonyl)-5,5-dimethyloctahydro-3aH-4,6-methanoisoindol-3a-yl)methyl (2,4-dimethylphenyl)carbamate], the IC50 on IDO1 [3] was 1000 to 5000 nM.
The same measure, in the same setting: with `CC1(C)[C@H]2C[C@@H]3CN(S(=O)(=O)c4ccccc4)C[C@]3(COC(=O)Nc3ccc(I)cc3)[C@@H]1C2` [compound 37, ((3aS,4R,6R,7aS)-5,5-dimethyl-2-(phenylsulfonyl)octahydro-3aH-4,6-methanoisoindol-3a-yl)methyl (4-iodophenyl)carbamate] the figure was 1000 to 5000 nM; with `CCOC(=O)C(C)(C)c1ccc(S(=O)(=O)N2C[C@H]3C[C@H]4C[C@H](C4(C)C)[C@@]3(COC(=O)Nc3ccc(I)cc3)C2)cc1` [compound 64, Ethyl 2-(4-(((3aS,4R,6R,7aS)-3a-((((4-iodophenyl)carbamoyl)oxy)methyl)-5,5-dimethyloctahydro-2H-4,6-methanoisoindol-2-yl)sulfonyl)phenyl)-2-methylpropanoate], 200 to 1000 nM.
On the same count and under the same terms, with `CC1(C)[C@H]2C[C@@H]3CN(S(=O)(=O)c4ccc([Si](C)(C)C)cc4)C[C@]3(COC(=O)Nc3ccc(I)cc3)[C@@H]1C2` [compound 50, ((3aS,4R,6R,7aS)-5,5-dimethyl-2-((4-(trimethylsilyl)phenyl)sulfonyl)octahydro-3aH-4,6-methanoisoindol-3a-yl)methyl (4-iodophenyl)carbamate] the figure was 200 to 1000 nM.
Turning to `COC(=O)C(C)(C)c1ccc(S(=O)(=O)N2C[C@H]3C[C@H]4C[C@H](C4(C)C)[C@@]3(COC(=O)Nc3ccc(I)cc3)C2)c(OC)c1` [compound 66, Methyl 2-(4-(((3aS,4R,6R,7aS)-3a-((((4-iodophenyl)carbamoyl)oxy)methyl)-5,5-dimethyloctahydro-2H-4,6-methanoisoindol-2-yl)sulfonyl)-3-methoxyphenyl)-2-methylpropanoate], the half-inhibitory concentration (IC50) at IDO1 [3] was less than 200 nM.
Still for that read-out and setting: with `CN(C)CC(C)(C)c1ccc(S(=O)(=O)N2C[C@H]3C[C@H]4C[C@H](C4(C)C)[C@@]3(COC(=O)Nc3ccc(I)cc3)C2)cc1` [compound 61, ((3aS,4R,6R,7aS)-2-((4-(1-(dimethylamino)-2-methylpropan-2-yl)phenyl)sulfonyl)-5,5-dimethyloctahydro-3aH-4,6-methanoisoindol-3a-yl)methyl (4-iodophenyl)carbamate] the figure was 1000 to 5000 nM.
`C#Cc1ccc(NC(=O)OC[C@]23CN(S(=O)(=O)c4ccc(C(C)(C)C(=O)O)cc4C)C[C@H]2C[C@H]2C[C@@H]3C2(C)C)cc1` [compound 75, 2-(4-(((3aS,4R,6R,7aS)-3a-((((4-ethynylphenyl)carbamoyl)oxy)methyl)-5,5-dimethyloctahydro-2H-4,6-methanoisoindol-2-yl)sulfonyl)-3-methylphenyl)-2-methylpropanoic acid] gave a Dmax at 0.1 µM on IDO1 [1] of 27 ± 14%. On IDO1 [3], the IC50 is less than 200 nM and the “activity in the cell-based kynurenine assay” value is listed as “low nanomolar range”.
In the case of `COc1cc(C(C)(C)C)ccc1S(=O)(=O)N1C[C@H]2C[C@H]3C[C@H](C3(C)C)[C@@]2(COC(=O)Nc2ccc(I)cc2)C1` [compound 55, ((3aS,4R,6R,7aS)-2-((4-(tert-butyl)-2-methoxyphenyl)sulfonyl)-5,5-dimethyloctahydro-3aH-4,6-methanoisoindol-3a-yl)methyl (4-iodophenyl)carbamate], at IDO1 [1], the Dmax at 0.1 µM lay in the range of 55 to 59% and the “Dmax [%] (n)” value is 59 ± 16 (3) %. Also, the IC50 on IDO1 [3] is less than 200 nM.
With `CC(C)(C)c1ccc(S(=O)(=O)N2C[C@H]3C[C@H]4C[C@H](C4(C)C)[C@@]3(COC(=O)Nc3ccc(C#CCCO)cc3)C2)cc1` [compound 18, ((3aS,4R,6R,7aS)-2-((4-(tert-butyl)phenyl)sulfonyl)-5,5-dimethyloctahydro-3aH-4,6-methanoisoindol-3a-yl)methyl (4-(4-hydroxybut-1-yn-1-yl)phenyl)carbamate], on IDO1 [3], the IC50 was 1000 to 5000 nM.
As for `CC(C)(C)c1ccc(S(=O)(=O)N2C[C@H]3C[C@H]4C[C@H](C4(C)C)[C@@]3(COC(=O)Nc3ccc(Cl)cc3)C2)cc1` [compound 9, ((3aS,4R,6R,7aS)-2-((4-(tert-butyl)phenyl)sulfonyl)-5,5-dimethyloctahydro-3aH-4,6-methanoisoindol-3a-yl)methyl (4-chlorophenyl)carbamate], the IC50 at IDO1 [3] lay within 200 to 1000 nM.
On to `CC(C)(C)Cc1ccc(S(=O)(=O)N2C[C@H]3C[C@H]4C[C@H](C4(C)C)[C@@]3(COC(=O)Nc3ccc(I)cc3)C2)cc1` [compound 47, ((3aS,4R,6R,7aS)-5,5-dimethyl-2-((4-neopentylphenyl)sulfonyl)octahydro-3aH-4,6-methanoisoindol-3a-yl)methyl (4-iodophenyl)carbamate], for which the half-inhibitory concentration (IC50) at IDO1 [3] is 200 to 1000 nM.
Same read-out and setting: the figure for `Cc1ccc(NC(=O)OC[C@]23CN(S(=O)(=O)c4ccc(C(F)(F)F)cc4)C[C@H]2C[C@H]2C[C@@H]3C2(C)C)cc1` [compound 32, ((3aS,4R,6R,7aS)-5,5-dimethyl-2-((4-(trifluoromethyl)phenyl)sulfonyl)octahydro-3aH-4,6-methanoisoindol-3a-yl)methyl p-tolylcarbamate] is 1000 to 5000 nM; for `CC1(C)[C@H]2C[C@@H]3CN(S(=O)(=O)c4ccc5ccccc5c4)C[C@]3(COC(=O)Nc3ccc(I)cc3)[C@@H]1C2` [compound 38, ((3aS,4R,6R,7aS)-5,5-dimethyl-2-(naphthalen-2-ylsulfonyl)octahydro-3aH-4,6-methanoisoindol-3a-yl)methyl (4-iodophenyl)carbamate] it is 200 to 1000 nM.
`CC(C)(C)c1ccc(S(=O)(=O)N2C[C@H]3C[C@H]4C[C@H](C4(C)C)[C@@]3(COC(=O)Nc3ccc(I)cc3)C2)c(I)c1` [compound 57, ((3aS,4R,6R,7aS)-2-((4-(tert-butyl)-2-iodophenyl)sulfonyl)-5,5-dimethyloctahydro-3aH-4,6-methanoisoindol-3a-yl)methyl (4-iodophenyl)carbamate]: at IDO1 [1], the Dmax at 0.1 µM lay in the range of 55 to 59% and the “Dmax [%] (n)” value was 55 ± 5 (3) %. In addition, the IC50 at IDO1 [3] was less than 200 nM.
